Results on 23 compounds are retold here after US10611750B2, “Tetrahydroquinoline compositions as bet bromodomain inhibitors” (FORMA Therapeutics, Inc., priority 2013, dated 2020).

Test [1] concerns acute myelocytic leukemia (AML) cell line MV4-11. In words: Oncology cell growth assay (3-day proliferation, CellTiter-Glo). The test is classed as cell-based. Particulars: Homo sapiens, MV4-11 cells, 3000 cells/well, compounds listed under IC50 range headings, read-out: MV411 IC50 (gIC50, inhibition of proliferation). Put shortly: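 72 h, 37° C, 5% CO2; MV4-11, 3000 cells/well, RPMI 1640 + 10% FBS. Compound final 10, 3.3, 1.1, 0.37, 0.12, 0.041, 0.013, 0.0045 μM. Readout CellTiter-Glo luminescence; gIC50 by 4-parameter logistic fit, normalised to DMSO and no-cell background.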
Background: Cellular ATP, detected with luciferase, serves as a proxy for viable cell number.

In test [2] the target is T1, BRD4 Bromodomain 1 (BRD4 BD1) (Homo sapiens, UniProt O60885).
T1 construct: 44-168 and BRD4 BD2
In words: AlphaScreen binding assay, BRD4 BD1. Particulars: His-tagged BRD4 BD1 50 nM, biotinylated H4 (1-21) K5/8/12/16 tetra-acetylated peptide 50 nM, compounds listed under IC50 range headings. An outline of the steps:
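Compound dilution series were mixed with His-tagged BRD4 bromodomain and biotinylated tetra-acetylated H4 (1-21) peptide at pH 7.3 (BD1 and peptide at 50 nM, BD2 and peptide at 100 nM). Donor and acceptor beads were then added, and plates were equilibrated at least 1 h before reading. IC50 values were fitted with a four-parameter logistic model.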

Structures are written as SMILES. Where “and” joins values, the source holds several entries; their conditions need not be identical. Identical values can stand only once. Like-named read-outs stand apart in the source and are kept apart here.

In the case of `COC(=O)N1c2ccc(-c3cnn(C4CCNCC4)c3)c(Oc3cccc(OC)n3)c2CC[C@@H]1C` [I-335, (S)-methyl 5-(6-methoxypyridin-2-yloxy)-2-methyl-6-(1-(piperidin-4-yl)-1H-pyrazol-4-yl)-3,4-dihydroquinoline-1(2H)-carboxylate], the IC50 was under 500 nM in test [1] (MV4-11, 72 h) and 100 to 1000 nM in test [2].

Take `COc1cccc(Oc2c(-c3cnn(C4CCNCC4)c3)ccc3c2CC[C@H](C)N3C(C)=O)n1` [I-336, (S)-1-(5-(6-methoxypyridin-2-yloxy)-2-methyl-6-(1-(piperidin-4-yl)-1H-pyrazol-4-yl)-3,4-dihydroquinolin-1 (2H)-yl)ethanone]: the IC50 in test [1] (MV4-11, 72 h) was under 500 nM; in test [2], 100 to 1000 nM.

As to `C[C@H]1CCc2c(ccc(-n3cc(N4CCNCC4)cn3)c2Oc2ccccc2)N1C(=O)C1CC1` [I-337, (S)-cyclopropyl(2-methyl-5-phenoxy-6-(4-(piperazin-1-yl)-1H-pyrazol-1-yl)-3,4-dihydroquinolin-1(2H)-yl)methanone], the IC50 is over 1000 nM in test [1] (MV4-11, 72 h) and 1000 to 10000 nM in test [2].

As to `C[C@H]1CCc2c(ccc(-n3cc(N4CCOCC4)cn3)c2Oc2ccccc2)N1C(=O)C1CC1` [I-338, (S)-cyclopropyl(2-methyl-6-(4-morpholino-1H-pyrazol-1-yl)-5-phenoxy-3,4-dihydroquinolin-1(2H)-yl)methanone], the IC50 in test [1] (MV4-11, 72 h) lay within 500 to 1000 nM; in test [2], 1000 to 10000 nM.

Take `COC(=O)N1c2ccc(-n3cc(N4CCOCC4)cn3)c(Oc3ccccc3)c2CC[C@@H]1C` [I-339, (S)-methyl 2-methyl-6-(4-morpholino-1H-pyrazol-1-yl)-5-phenoxy-3,4-dihydroquinoline-1(2H)-carboxylate]: the IC50 in test [1] (MV4-11, 72 h) is over 1000 nM; in test [2] it was 1000 to 10000 nM.

As to `COC(=O)N1c2ccc(-n3cc(N4CCNCC4)cn3)c(Oc3ccccc3)c2CC[C@@H]1C` [I-340, (S)-methyl 2-methyl-5-phenoxy-6-(4-(piperazin-1-yl)-1H-pyrazol-1-yl)-3,4-dihydroquinoline-1(2H)-carboxylate], the IC50 in test [1] (MV4-11, 72 h) is over 1000 nM; in test [2], 1000 to 10000 nM.

As for `COC(=O)N1c2ccc(-c3cnn(C4CCS(=O)(=O)CC4)c3)c(OC3CCC3)c2CC[C@@H]1C` [I-341, methyl (2S)-5-cyclobutoxy-6-[1-(1,1-dioxo-1λ^6-thian-4-yl)-1H-pyrazol-4-yl]-2-methyl-1,2,3,4-tetrahydroquinoline-1-carboxylate], the IC50 fell in the range of 500 to 1000 nM in test [1] (MV4-11, 72 h) and 100 to 1000 nM in test [2].

`C[C@H]1CCc2c(ccc(C#N)c2Oc2ccccc2)N1C(=O)C1CC1` [I-343, (S)-1-(cyclopropanecarbonyl)-2-methyl-5-phenoxy-1,2,3,4-tetrahydroquinoline-6-carbonitrile]: the IC50 was under 500 nM in test [1] (MV4-11, 72 h); 100 to 1000 nM and ≥ 10000 nM in test [2].

On to `COC(=O)N1c2ccc(C#N)c(Oc3ccccc3)c2CC[C@@H]1C` [I-344, (S)-methyl 6-cyano-2-methyl-5-phenoxy-3,4-dihydroquinoline-1(2H)-carboxylate], for which the IC50 in test [1] (MV4-11, 72 h) was over 1000 nM; in test [2], at least 10000 nM.

`C#Cc1ccc2c(c1Oc1ccccc1)CC[C@H](C)N2C(=O)C1CC1` [I-345, (S)-cyclopropyl(6-ethynyl-2-methyl-5-phenoxy-3,4-dihydroquinolin-1(2H)-yl)methanone]: the IC50 in test [1] (MV4-11, 72 h) is over 1000 nM; in test [2], at least 10000 nM.

On to `C#Cc1ccc2c(c1Oc1ccccc1)CC[C@H](C)N2C(=O)OC` [I-346, (S)-methyl 6-ethynyl-2-methyl-5-phenoxy-3,4-dihydroquinoline-1(2H)-carboxylate], for which the IC50 in test [1] (MV4-11, 72 h) is over 1000 nM; in test [2] it was at least 10000 nM.

Take `CC#Cc1ccc2c(c1Oc1ccccc1)CC[C@H](C)N2C(=O)C1CC1` [I-347, (S)-cyclopropyl(2-methyl-5-phenoxy-6-(prop-1-ynyl)-3,4-dihydroquinolin-1(2H)-yl)methanone]: the IC50 is over 1000 nM in test [1] (MV4-11, 72 h) and at least 10000 nM in test [2].

Regarding `C[C@H]1CCc2c(ccc(-n3cc(C4CCNCC4)cn3)c2Oc2ccccc2)N1C(=O)C1CC1` [I-348, (S)-cyclopropyl(2-methyl-5-phenoxy-6-(4-(piperidin-4-yl)-1H-pyrazol-1-yl)-3,4-dihydroquinolin-1(2H)-yl)methanone], the IC50 is under 500 nM in test [1] (MV4-11, 72 h) and 1000 to 10000 nM in test [2].

For the compound `COC(=O)N1c2ccc(-c3csc(C4(F)CNC4)n3)c(OC3CCC3)c2CC[C@@H]1C` [I-349, (S)-methyl 5-cyclobutoxy-6-(2-(3-fluoroazetidin-3-yl)thiazol-4-yl)-2-methyl-3,4-dihydroquinoline-1(2H)-carboxylate], the IC50 in test [1] (MV4-11, 72 h) was over 1000 nM; in test [2] it was 1000 to 10000 nM.

`COC(=O)N1c2ccc(-c3csc(C4(OC)CNC4)n3)c(OC3CCC3)c2CC[C@@H]1C` [I-350, (S)-methyl 5-cyclobutoxy-6-(2-(3-methoxyazetidin-3-yl)thiazol-4-yl)-2-methyl-3,4-dihydroquinoline-1(2H)-carboxylate]: the IC50 was over 1000 nM in test [1] (MV4-11, 72 h) and 1000 to 10000 nM in test [2].

In the case of `COC(=O)N1c2ccc(-c3cnn(C4CCNCC4)c3F)c(OC3CCC3)c2CC[C@@H]1C` [I-360, methyl (S)-5-cyclobutoxy-6-(5-fluoro-1-(piperidin-4-yl)-1H-pyrazol-4-yl)-2-methyl-3,4-dihydroquinoline-1(2H)-carboxylate], the figures for the IC50 in test [1] (72 hours) and in test [2] were under 500 nM and 100 to 1000 nM, respectively.

Take `COC(=O)N1c2ccc(-c3cnn([C@@H]4CCNC[C@H]4F)c3)c(OC3CCC3)c2CC[C@@H]1C` [I-367, methyl (2S)-5-cyclobutoxy-6-{1-[(3R,4R)-3-fluoropiperidin-4-yl]-1H-pyrazol-4-yl}-2-methyl-1,2,3,4-tetrahydroquinoline-1-carboxylate]: the IC50 in test [1] (MV4-11, 72 h) is under 500 nM; in test [2], 100 to 1000 nM.

`COC(=O)N1c2ccc(-c3cnn([C@@H]4CCNC[C@H]4F)c3)c(Oc3ccc(F)cc3)c2CC[C@@H]1C` [I-368, methyl (2S)-5-(4-fluorophenoxy)-6-{1-[(3R,4R)-3-fluoropiperidin-4-yl]-1H-pyrazol-4-yl}-2-methyl-1,2,3,4-tetrahydroquinoline-1-carboxylate]: the IC50 in test [1] (MV4-11, 72 h) was under 500 nM; in test [2] it was 100 to 1000 nM.

On to `C[C@H]1CCc2c(ccc(-c3cnn([C@@H]4CCNC[C@@H]4F)c3)c2OC2CCC2)N1C(=O)C1CC1` [I-369, (2S)-5-cyclobutoxy-1-cyclopropanecarbonyl-6-{1-[(3S,4R)-3-fluoropiperidin-4-yl]-1H-pyrazol-4-yl}-2-methyl-1,2,3,4-tetrahydroquinoline], for which the IC50 in test [1] (MV4-11, 72 h) is under 500 nM; in test [2] it was 100 to 1000 nM.

Regarding `CC(=O)N1c2ccc(-c3cnn(C4CC4)c3)c(OCC(C)C)c2CC[C@@H]1C` [I-394], the IC50 in test [1] (MV4-11, 72 h) is under 500 nM; in test [2], 100 to 1000 nM.

As to `C[C@H]1CCc2c(ccc(-c3cnn(C4CCOCC4)c3)c2OC2CCC2)N1C(=O)C1CC1` [I-507], the IC50 in test [1] (MV4-11, 72 h) lay within 500 to 1000 nM; in test [2], 100 to 1000 nM.

Turning to `C[C@H]1CCc2c(ccc(-c3cnn(C4CCCS(=O)(=O)C4)c3)c2OC2CCC2)N1C(=O)C1CC1` (stereo partly shown) [I-508], the IC50 is under 500 nM in test [1] (MV4-11, 72 h) and 100 to 1000 nM in test [2].

`C[C@H]1CCc2c(ccc(-c3cnn(C4CS(=O)(=O)C4)c3)c2OC2CCC2)N1C(=O)C1CC1` [I-509]: the IC50 in test [1] (MV4-11, 72 h) was under 500 nM; in test [2], 100 to 1000 nM.
